Results as given in US20120184590A1, “FORMULATIONS OF INDOLE-3-CARBINOL DERIVED ANTITUMOR AGENTS WITH INCREASED ORAL BIOAVAILABILITY” (UNIVERSITY OF KANSAS, priority 2009, published 2012).
Several values for one entry are separate records, joined by “and”; a condition that tells them apart may be missing. Identical values can stand only once. Like-named read-outs stand apart in the source and are kept apart here. Marks after values point to notes of the source that are not given here.

Assay: Pharmacokinetics of SR13668 in dogs after i.v. and oral gavage dosing
Assay type: in vivo, beagle dogs
Conditions: for Fabs F/(1-ER): blood; for bioavailability: beagle (dogs), across all oral groups, dogs and monkeys; for Vd/F: read-out: VZ/F
Text: Four non-naïve male beagle dogs (approximately 3 years of age; Ridglan Farms Inc. Mt. Horeb, Wis.) and four non-naïve male cynomolgus monkeys [cynos (macaca fasicularis); approximately 7 to 8 years of age; Charles River Laboratories, Inc., Houston, Tex.] were used in this study. Prior to experimental initiation for the present study, the attending veterinarian certified that the animals were healthy and free from disease and parasites.
For both species, each animal was part of each experimental group, with a 7-day interval between treatments to allow for washout of the dosing formulation and its effects. Dosing formulations of SR13668 were administered by oral gavage (intragastric) or intravenous (i.v.) injection as a single dose or once daily for seven consecutive days. Oral to doses were administered at a dosing volume of 5 mL/kg of body weight, while intravenous doses were administered at a dosing volume of 0.5 mL/kg of body weight. Dogs were dosed with 93.6 mg/m^2 SR13668 intravenously in DMSO:PEG300 15:85 (v/v) or orally in Solutol® vehicle (two groups, fed and after an overnight fast). Monkeys were dosed with 84.2 mg/m^2 SR13668 intravenously in DMSO:PEG300 15:85 (v/v) or orally (336.7 mg/m^2 SR13668 for the oral high dose group) in PEG400:Labrasol® 1:1 (v/v) or Solutol® vehicles. Vehicle control groups were used to assess the tolerability of the vehicle and for clinical pathology evaluations.
Blood samples were collected from each animal at 10 time points (0, 0.25, 0.5, 1, 2, 4, 6, 8, 12 and 24 hours post-dose) during the first and last 24-hour segment of each dosing regimen. For single intravenous dose experiments, samples were collected during the 24-hour post-dose period only. Samples were transferred to Vacutainer tubes containing ethylenediaminetetraacetic acid (EDTA; Fisher Scientific, Pittsburgh, Pa.). The tubes were inverted several times to mix and then placed on ice until storage or centrifugation for plasma preparation. After centrifugation, the plasma was transferred into storage tubes (0.5 mL), which were placed on dry ice and then stored frozen (approximately −70° C.).
Levels of SR13668 in plasma and blood were measured using a tandem mass to spectrometer (API 3000; Applied Biosystems/MDS Sciex, Foster City, Calif.) equipped with a high performance liquid chromatograph (Agilent 1200; Agilent Technologies, Wilmington, Del.). For SR13668 determination, a 100 μL blood or plasma aliquot was mixed with 1 mL of acetonitrile (ACN; Sigma-Aldrich, St. Louis, Mo.). After vortex-mixing for one minute, the sample was centrifuged at 4° C. and 7000 RPM for 10 minutes to remove precipitated proteins, and the supernatant was transferred to a clean tube and dried under nitrogen flow at room temperature (approximately 25° C.). After the evaporation was completed, the residue was reconstituted in 500 μL of ACN/water (v/v 70:30), and vortex-mixed and centrifuged again. An aliquot of the resulting supernatant was transferred to an autosampler tube for instrumental analysis.
A freshly prepared SR13668 standard curve was analyzed along with samples on each day of analysis. The chromatographic column was a Luna 3μ C18(2) 110 Å 30×2.0 mm (Phenomenex, Torrance, Calif.). The column temperature was maintained at 25° C., and a flow rate of 0.30 mL/min was used. The mobile phase consisted of MPA: formic acid in water (0.05%, v/v) and MPB: formic acid in ACN (0.05%, v/v). The mobile phase gradient was as follows: after injection, initial conditions with MPA at 40% were held for 0.01 min, decreased to 5% and held constant for 3 min, returning to initial conditions for another 3 min of re-equilibration time. Retention time of SR13668 was approximately 2.4 min. Total run time was 6 min. A turbo ion spray interface was used as the ion source operating in negative ion mode. Acquisition was performed in multiple reaction monitoring mode using ions 429.15 (Q1) and 414.12 (Q3) Dalton. […]

[1] = dogs, whole blood, 93.6 mg/m^2 (4.68 mg/kg) iv single dose, DMSO:PEG300 15:85 v/v, fed
[2] = male, beagle, dog, plasma, iv, 4.68 mg/kg, dogs, plasma, 93.6 mg/m^2 (4.68 mg/kg) i.v. single dose, DMSO:PEG300 15:85 v/v, fed
[3] = male, beagle, dog, plasma, po, 4.68 mg/kg, dogs, 93.6 mg/m^2 (4.68 mg/kg) oral gavage, Solutol, seventh daily dose, fasted
[4] = male, beagle, dog, plasma, po, 4.68 mg/kg, dogs, 93.6 mg/m^2 (4.68 mg/kg) oral gavage, Solutol, seventh daily dose, fed
[5] = male, beagle, dog, whole blood, iv, 4.68 mg/kg, dogs, whole blood, 93.6 mg/m^2 (4.68 mg/kg) iv single dose, DMSO:PEG300 15:85 v/v, fed
[6] = male, beagle, dog, whole blood, po, 4.68 mg/kg, dogs, 93.6 mg/m^2 (4.68 mg/kg) oral gavage, Solutol, seventh daily dose, fasted
[7] = male, beagle, dog, whole blood, po, 4.68 mg/kg, dogs, 93.6 mg/m^2 (4.68 mg/kg) oral gavage, Solutol, seventh daily dose, fed

SMILES: CCOC(=O)c1ccc2[nH]c3c(OC)c4[nH]c5ccc(C(=O)OCC)cc5c4cc3c2c1 [SR13668, 2,10-dicarbethoxy-6-methoxy-5,7-dihydro-indolo-(2,3-b)carbazole]
- CL (dogs, blood clearance, 93.6 mg/m^2 (4.68 mg/kg) oral gavage, Solutol, fasted): 30.0 mL/min/kg
- CL (dogs, blood clearance, 93.6 mg/m^2 (4.68 mg/kg) oral gavage, Solutol, fed): 25.7 mL/min/kg
- Fabs F/(1-ER) (dogs, 93.6 mg/m^2 (4.68 mg/kg) oral gavage, Solutol, fasted): 16.5%
- Fabs F/(1-ER) (dogs, 93.6 mg/m^2 (4.68 mg/kg) oral gavage, Solutol, fed): 20.0%
- F0-∞ (dogs, plasma, 93.6 mg/m^2 (4.68 mg/kg) i.v. single dose, DMSO:PEG300 15:85 v/v, fed): 100%
- F0-∞ (dogs, plasma, 93.6 mg/m^2 (4.68 mg/kg) oral gavage, Solutol, seventh daily dose, fasted): 13.3 ± 4.0%
- CL/F [1]: 0.244 ± 0.034^a,h L/hr/kg
- F0-∞ [1]: 100%
- F0-∞ (dogs, whole blood, 93.6 mg/m^2 (4.68 mg/kg) oral gavage, Solutol, seventh daily dose, fasted): 14.2 ± 4.5% and 14.2%
- F0-∞ (dogs, whole blood, 93.6 mg/m^2 (4.68 mg/kg) oral gavage, Solutol, seventh daily dose, fed): 17.2 ± 4.3^h,i % and 17.2%
- ER CLiv/Q (dogs, iv blood clearance over hepatic blood flow 30.9 mL/min/kg): 0.14
- effect of fed or fasted condition on bioavailability (dogs, oral gavage, Solutol): did not have an effect
- bioavailability (male, dog, plasma, read-out: plasma oral bioavailability, range): 0.7 to 14.6%
- bioavailability (male, dog, whole blood, read-out: blood oral bioavailability, range): 1.1 to 17.2%
- AUC(0-inf) [2]: 8400 ± 1190 ng·h/mL
- Cmax [2]: 2360 ± 573 ng/mL
- MRT [2]: 6.3 ± 0.6 h
- Tmax [2]: 0.25 h
- half-life [2]: 5 ± 0.2 h
- CL/F (male, beagle, dog, plasma, po, 4.68 mg/kg, dogs, plasma, 93.6 mg/m^2 (4.68 mg/kg) oral gavage, Solutol, seventh daily dose, fasted, read-out: CL/F (converted)): 76.3 mL/min/kg
- Vd/F (male, beagle, dog, plasma, po, 4.68 mg/kg, dogs, plasma, 93.6 mg/m^2 (4.68 mg/kg) oral gavage, Solutol, seventh daily dose, fasted): 64 ± 24 L/kg
- CL/F (male, beagle, dog, plasma, po, 4.68 mg/kg, dogs, plasma, 93.6 mg/m^2 (4.68 mg/kg) oral gavage, Solutol, seventh daily dose, fed, read-out: CL/F (converted)): 69.7 mL/min/kg
- Vd/F (male, beagle, dog, plasma, po, 4.68 mg/kg, dogs, plasma, 93.6 mg/m^2 (4.68 mg/kg) oral gavage, Solutol, seventh daily dose, fed): 32.4 ± 9.6 L/kg
- AUC(0-inf) [3]: 1100 ± 339 ng·h/mL
- Cmax [3]: 113 ± 58 ng/mL
- MRT [3]: 12.8 ± 4.2 h
- Tmax [3]: 2.8 ± 1.5 h
- half-life [3]: 9.7 ± 2.4 h
- AUC(0-inf) [4]: 1240 ± 414 ng·h/mL
- Cmax [4]: 207 ± 48 ng/mL
- MRT [4]: 7.1 ± 1.1 h
- Tmax [4]: 1.8 ± 0.5 h
- half-life [4]: 5.6 ± 1.4 h
- AUC(0-inf) [5]: 19500 ± 3160 ng·h/mL
- Cmax [5]: 5220 ± 742 ng/mL
- MRT [5]: 6.7 ± 0.6 h
- Tmax [5]: 0.25 h
- half-life [5]: 5 ± 0.1 h
- CL/F (male, beagle, dog, whole blood, po, 4.68 mg/kg, dogs, whole blood, 93.6 mg/m^2 (4.68 mg/kg) oral gavage, Solutol, seventh daily dose, fasted, read-out: CL/F (converted)): 30 mL/min/kg
- Vd/F (male, beagle, dog, whole blood, po, 4.68 mg/kg, dogs, whole blood, 93.6 mg/m^2 (4.68 mg/kg) oral gavage, Solutol, seventh daily dose, fasted): 18.6 ± 7.5 L/kg
- CL/F (male, beagle, dog, whole blood, po, 4.68 mg/kg, dogs, whole blood, 93.6 mg/m^2 (4.68 mg/kg) oral gavage, Solutol, seventh daily dose, fed, read-out: CL/F (converted)): 25.7 mL/min/kg
- Vd/F (male, beagle, dog, whole blood, po, 4.68 mg/kg, dogs, whole blood, 93.6 mg/m^2 (4.68 mg/kg) oral gavage, Solutol, seventh daily dose, fed): 12.8 ± 4.8 L/kg
- AUC(0-inf) [6]: 2680 ± 577 ng·h/mL
- Cmax [6]: 277 ± 87 ng/mL
- MRT [6]: 10.9 ± 3.1 h
- Tmax [6]: 2.8 ± 1.5 h
- half-life [6]: 7 ± 1.8 h
- AUC(0-inf) [7]: 3410 ± 1290 ng·h/mL
- Cmax [7]: 575 ± 152 ng/mL
- MRT [7]: 7.2 ± 0.9 h
- Tmax [7]: 1.8 ± 0.5 h
- half-life [7]: 5.9 ± 1.5 h
- clearance (male, beagle, dog, whole blood, dogs, blood clearance, 93.6 mg/m^2 (4.68 mg/kg) iv, DMSO:PEG300 15:85 v/v, fed): 4.07 mL/min/kg
